Measurements as given in ChEMBL document CHEMBL4138123, “Design, synthesis and biological evaluation of novel pyrazolochalcones as potential modulators of PI3K/Akt/mTOR pathway and inducers of apoptosis in breast cancer cells” (Eur J Med Chem, 2017).

What was measured:
Assay type in all cases: functional
MDA-MB-435 [1] = assay: Cytotoxicity against human MDA-MB-435 cells assessed as growth inhibition after 48 hrs by sulforhodamine B assay; conditions: MDA-MB-435, 48 h
IGROV-1 = assay: Cytotoxicity against human IGROV1 cells assessed as growth inhibition after 48 hrs by sulforhodamine B assay; conditions: IGROV-1, 48 h
SK-OV-3 = assay: Cytotoxicity against human SKOV3 cells assessed as cell growth at 0.01 uM after 48 hrs by sulforhodamine B assay relative to control; conditions: SK-OV-3, 48 h, read-out: Activity
SK-MEL-5 [2] = assay: Cytotoxicity against human SK-MEL-5 cells assessed as cell growth at 0.01 uM after 48 hrs by sulforhodamine B assay relative to control; conditions: SK-MEL-5, 48 h, read-out: Activity
MDA-MB-435 [3] = assay: Cytotoxicity against human MDA-MB-435 cells assessed as cell growth at 0.01 uM after 48 hrs by sulforhodamine B assay relative to control; conditions: MDA-MB-435, 48 h, read-out: Activity
SNB-19 = assay: Cytotoxicity against human SNB19 cells assessed as cell growth at 0.01 uM after 48 hrs by sulforhodamine B assay relative to control; conditions: SNB-19, 48 h, read-out: Activity
RPMI-8226 = assay: Cytotoxicity against human RPMI8226 cells assessed as cell growth at 0.01 uM after 48 hrs by sulforhodamine B assay relative to control; conditions: RPMI-8226, 48 h, read-out: Activity
DU-145 = assay: Cytotoxicity against human DU145 cells assessed as cell growth at 0.01 uM after 48 hrs by sulforhodamine B assay relative to control; conditions: DU-145, 48 h, read-out: Activity
NCI-H226 = assay: Cytotoxicity against human NCI-H226 cells assessed as cell growth at 0.1 uM after 48 hrs by sulforhodamine B assay relative to control; conditions: NCI-H226, 48 h, read-out: Activity
NCI-H322M = assay: Cytotoxicity against human NCI-H322M cells assessed as cell growth at 0.1 uM after 48 hrs by sulforhodamine B assay relative to control; conditions: read-out: Activity
HCT-15 = assay: Cytotoxicity against human HCT15 cells assessed as cell growth at 0.1 uM after 48 hrs by sulforhodamine B assay relative to control; conditions: HCT-15, 48 h, read-out: Activity
SW-620 [4] = assay: Cytotoxicity against human SW620 cells assessed as cell growth at 0.1 uM after 48 hrs by sulforhodamine B assay relative to control; conditions: SW-620, 48 h, read-out: Activity
A498 [5] = assay: Cytotoxicity against human A498 cells assessed as cell growth at 0.1 uM after 48 hrs by sulforhodamine B assay relative to control; conditions: A498, 48 h, read-out: Activity
ACHN = assay: Cytotoxicity against human ACHN cells assessed as cell growth at 0.1 uM after 48 hrs by sulforhodamine B assay relative to control; conditions: read-out: Activity
NCI-H460 = assay: Cytotoxicity against human NCI-H460 cells assessed as cell growth at 1 uM after 48 hrs by sulforhodamine B assay relative to control; conditions: NCI-H460, 48 h, read-out: Activity
NCI-H522 [6] = assay: Cytotoxicity against human NCI-H522 cells assessed as cell growth at 1 uM after 48 hrs by sulforhodamine B assay relative to control; conditions: NCI-H522, 48 h, read-out: Activity
COLO 205 [7] = assay: Cytotoxicity against human COLO205 cells assessed as cell growth at 1 uM after 48 hrs by sulforhodamine B assay relative to control; conditions: COLO 205, 48 h, read-out: Activity
HCC 2998 = assay: Cytotoxicity against human HCC2998 cells assessed as cell growth at 1 uM after 48 hrs by sulforhodamine B assay relative to control; conditions: HCC 2998, 48 h, read-out: Activity
UACC-257 [8] = assay: Cytotoxicity against human UACC257 cells assessed as cell growth at 1 uM after 48 hrs by sulforhodamine B assay relative to control; conditions: UACC-257, 48 h, read-out: Activity
SN12C [9] = assay: Cytotoxicity against human SN12C cells assessed as cell growth at 1 uM after 48 hrs by sulforhodamine B assay relative to control; conditions: read-out: Activity
BT-549 = assay: Cytotoxicity against human BT549 cells assessed as cell growth at 1 uM after 48 hrs by sulforhodamine B assay relative to control; conditions: BT-549, 48 h, read-out: Activity
HOP-62 = assay: Cytotoxicity against human HOP62 cells assessed as cell growth at 10 uM after 48 hrs by sulforhodamine B assay relative to control; conditions: HOP-62, 48 h, read-out: Activity
NCI-H522 [10] = assay: Cytotoxicity against human NCI-H522 cells assessed as cell growth at 10 uM after 48 hrs by sulforhodamine B assay relative to control; conditions: NCI-H522, 48 h, read-out: Activity
COLO 205 [11] = assay: Cytotoxicity against human COLO205 cells assessed as cell growth at 10 uM after 48 hrs by sulforhodamine B assay relative to control; conditions: COLO 205, 48 h, read-out: Activity
SW-620 [12] = assay: Cytotoxicity against human SW620 cells assessed as cell growth at 10 uM after 48 hrs by sulforhodamine B assay relative to control; conditions: SW-620, 48 h, read-out: Activity
U-251 = assay: Cytotoxicity against human U251 cells assessed as cell growth at 10 uM after 48 hrs by sulforhodamine B assay relative to control; conditions: U-251, 48 h, read-out: Activity
A498 [13] = assay: Cytotoxicity against human A498 cells assessed as cell growth at 10 uM after 48 hrs by sulforhodamine B assay relative to control; conditions: A498, 48 h, read-out: Activity
SN12C [14] = assay: Cytotoxicity against human SN12C cells assessed as cell growth at 10 uM after 48 hrs by sulforhodamine B assay relative to control; conditions: read-out: Activity
UO-31 = assay: Cytotoxicity against human UO31 cells assessed as cell growth at 10 uM after 48 hrs by sulforhodamine B assay relative to control; conditions: UO-31, 48 h, read-out: Activity
A549 = assay: Cytotoxicity against human A549/ATCC cells assessed as cell growth at 100 uM after 48 hrs by sulforhodamine B assay relative to control; conditions: A549, 48 h, read-out: Activity
SK-MEL-5 [15] = assay: Cytotoxicity against human SK-MEL-5 cells assessed as cell growth at 100 uM after 48 hrs by sulforhodamine B assay relative to control; conditions: SK-MEL-5, 48 h, read-out: Activity
UACC-257 [16] = assay: Cytotoxicity against human UACC257 cells assessed as cell growth at 100 uM after 48 hrs by sulforhodamine B assay relative to control; conditions: UACC-257, 48 h, read-out: Activity
MCF7 = assay: Cytotoxicity against human MCF7 cells assessed as cell growth at 100 uM after 48 hrs by sulforhodamine B assay relative to control; conditions: MCF7, 48 h, read-out: Activity
Hs-578T = assay: Cytotoxicity against human Hs 578T cells assessed as cell growth at 100 uM after 48 hrs by sulforhodamine B assay relative to control; conditions: read-out: Activity
T47D = assay: Cytotoxicity against human T47D cells assessed as cell growth at 100 uM after 48 hrs by sulforhodamine B assay relative to control; conditions: read-out: Activity

| SMILES | GI50 (MDA-MB-435 [1]) [nM] | LC50 (MDA-MB-435 [1]) [µM] | TGI (MDA-MB-435 [1]) [µM] | GI50 (IGROV-1) [nM] | LC50 (IGROV-1) [µM] | TGI (IGROV-1) [µM] | growth at 0.01 µM (SK-OV-3) [%] | growth at 0.01 µM (SK-MEL-5 [2]) [%] | growth at 0.01 µM (MDA-MB-435 [3]) [%] | growth at 0.01 µM (SNB-19) [%] | growth at 0.01 µM (RPMI-8226) [%] | growth at 0.01 µM (DU-145) [%] | growth at 0.1 µM (NCI-H226) [%] | growth at 0.1 µM (NCI-H322M) [%] | growth at 0.1 µM (HCT-15) [%] | growth at 0.1 µM (SW-620 [4]) [%] | growth at 0.1 µM (A498 [5]) [%] | growth at 0.1 µM (ACHN) [%] | growth at 1 µM (NCI-H460) [%] | growth at 1 µM (NCI-H522 [6]) [%] | also measured |
| --- | --- | --- | --- | --- | --- | --- | --- | --- | --- | --- | --- | --- | --- | --- | --- | --- | --- | --- | --- | --- | --- |
| COc1ccc(-c2cc(/C=C/C(=O)c3ccc(OC)c(OC)c3)[nH]n2)cc1 | 1840 | 8.17 | 3.88 | 1570 | 8.49 | 3.65 | 109 | 90 | 97 | 96 | 106 | 104 | 90 | 94 | 97 | 99 | 79 | 96 | 75 | 11 | growth at 1 µM (COLO 205 [7]): 95%; growth at 1 µM (HCC 2998): 102%; growth at 1 µM (UACC-257 [8]): 87%; growth at 1 µM (SN12C [9]): 80%; growth at 1 µM (BT-549): 85%; growth at 10 µM (HOP-62): -25%; growth at 10 µM (NCI-H522 [10]): -68%; growth at 10 µM (COLO 205 [11]): -89%; growth at 10 µM (SW-620 [12]): -52%; growth at 10 µM (U-251): -97%; growth at 10 µM (A498 [13]): -57%; growth at 10 µM (SN12C [14]): -58%; growth at 10 µM (UO-31): -96%; growth at 100 µM (A549): -45%; growth at 100 µM (SK-MEL-5 [15]): -100%; growth at 100 µM (UACC-257 [16]): -100%; growth at 100 µM (MCF7): -100%; growth at 100 µM (Hs-578T): -26%; growth at 100 µM (T47D): -83% |
| COc1ccc(-c2cc(/C=C/C(=O)c3ccc(N)cc3)[nH]n2)cc1 | 2240 | 38.2 | 7 | 2270 | 43.3 | 6.45 | 101 | 97 | 97 | 92 | 99 | 104 | 84 | 89 | 100 | 101 | 97 | 105 | 92 | 61 | growth at 1 µM (COLO 205 [7]): 100%; growth at 1 µM (HCC 2998): 100%; growth at 1 µM (UACC-257 [8]): 90%; growth at 1 µM (SN12C [9]): 76%; growth at 1 µM (BT-549): 77%; growth at 10 µM (HOP-62): -15%; growth at 10 µM (NCI-H522 [10]): -70%; growth at 10 µM (COLO 205 [11]): -86%; growth at 10 µM (SW-620 [12]): -26%; growth at 10 µM (U-251): -94%; growth at 10 µM (A498 [13]): -39%; growth at 10 µM (SN12C [14]): -16%; growth at 10 µM (UO-31): -88%; growth at 100 µM (A549): -75%; growth at 100 µM (SK-MEL-5 [15]): -100%; growth at 100 µM (UACC-257 [16]): -95%; growth at 100 µM (MCF7): -68%; growth at 100 µM (Hs-578T): -35%; growth at 100 µM (T47D): -54% |
| COc1cc2c(cc1OC)C(=O)/C(=C/c1cc(-c3ccc4c(c3)OCO4)n[nH]1)C2 | 1730 | 6.18 | 3.27 | 1890 | 14.3 | 4.58 | 102 | 95 | 102 | 97 | 100 | 102 | 83 | 92 | 93 | 99 | 80 | 100 | 82 | -6 | growth at 1 µM (COLO 205 [7]): 94%; growth at 1 µM (HCC 2998): 102%; growth at 1 µM (UACC-257 [8]): 94%; growth at 1 µM (SN12C [9]): 87%; growth at 1 µM (BT-549): 88%; growth at 10 µM (HOP-62): -92%; growth at 10 µM (NCI-H522 [10]): -80%; growth at 10 µM (COLO 205 [11]): -97%; growth at 10 µM (SW-620 [12]): -56%; growth at 10 µM (U-251): -97%; growth at 10 µM (A498 [13]): -84%; growth at 10 µM (SN12C [14]): -96%; growth at 10 µM (UO-31): -91%; growth at 100 µM (A549): -65%; growth at 100 µM (SK-MEL-5 [15]): -97%; growth at 100 µM (UACC-257 [16]): -95%; growth at 100 µM (MCF7): -72%; growth at 100 µM (Hs-578T): -15%; growth at 100 µM (T47D): -93% |
